According to US10228358B2, “Apparatus and method for the assessment of concentration profiling and permeability rates” (Pion Inc., priority 2015, dated 2019):
In brackets after ≈: the same amount, converted by molar mass.

Key:
[1] = Permeability in concentric nested donor/receiver arrangement with PAMPA membrane; assay type: in vitro ADME; settings: in situ UV fiber optic, read-out: Peff (effective permeability coefficient)
Description: A concentric nested arrangement was used to study permeability of several compounds. The membrane was a PAMPA membrane and experiments were performed with and without Acceptor Sink Buffer™ on the acceptor sink side. Concentrations measurements were taken using in situ UV fiber optic system Pion Spectra™.

physchem = settings: aqueous buffer
Description: In the case of buccal drug delivery, the donor chamber represented the oral cavity, the artificial membrane the oral mucosa, while the acceptor chamber represented the blood circulation. At first 75 mL of n-dodecane was dribbled on the membrane surface, then 20 mL of pH 6.8 phosphate buffer was added into the donor chamber, and 20 mL of sink buffer was added into the acceptor chamber. […] Both chambers were stirred at 200 rpm at room temperature, using stirring devices 87 and 89. The temperature was controlled via elements 91. In both chambers the API concentration was followed by UV-spectrophotometry at 252 nm. Suitable probes for the spectroscopic measurements (not shown in FIG. 12) were introduced through openings 93 and 95.
The in vitro dissolution-absorption studies were carried out using a μFLUX™ (Pion Inc., Billerica Mass., U.S.A.), a schematic diagram of which is shown in FIG. 12. The apparatus included a donor and an acceptor chamber (20 mL volume) separated by an artificial membrane (PVDF, polyvinylidenefluoride, 0.45 μm, 1.54 cm^2). In the case of oral drug delivery, the donor chamber represents the gastrointestinal tract, while the acceptor chamber represents the blood circulation. […]

[2] = In vitro dissolution-permeation of aripiprazole forms on μFLUX; assay type: in vitro ADME
Description: In the case of buccal drug delivery, the donor chamber represented the oral cavity, the artificial membrane the oral mucosa, while the acceptor chamber represented the blood circulation. At first […] of n-dodecane was dribbled on the membrane surface, then 20 mL of pH 6.8 phosphate buffer was added into the donor chamber, and 20 mL of sink buffer was added into the acceptor chamber. […] Samples equivalent to 20 mg of ARP were placed in the donor chamber. Both chambers were stirred at 200 rpm at room temperature, using stirring devices 87 and 89. The temperature was controlled via elements 91. In both chambers the API concentration was followed by UV-spectrophotometry at 252 nm. Suitable probes for the spectroscopic measurements (not shown in FIG. 12) were introduced through openings 93 and 95.
The flux across the membrane was calculated using the following equation:
[formula] where the flux (J) of a drug through the membrane is defined as the amount (n) of drug crossing a unit area (A) perpendicular to its flow per unit time (t).
The API concentration profiles in the donor and acceptor vessels (1000 mg/L max concentration, 0.025 mol/dm^3 KH2PO4 buffer in the donor compartment, n-dodecane membrane, sink buffer as acceptor, 150 rpm, 25° C.) are presented, respectively, in FIGS. 13A and 13B.

| solubility (physchem) | API dissolved during the biorelevant time ([2]; 30-60 min, donor chamber) | flux during the first 25 min ([2]; n-dodecane membrane, sink buffer acceptor) | SMILES | Papp [1] |
| --- | --- | --- | --- | --- |
|  |  |  | Cn1c(=O)c2c(ncn2C)n(C)c1=O [Caffeine] | 257 ×10⁻⁶ cm/s |
|  |  |  | CC(=O)Oc1ccccc1C(=O)O [Aspirin] | 331 ×10⁻⁶ cm/s |
| 30 µg/mL (≈ 66.9 µM) | 1.5% | 16 μg/h×cm^2 | O=C1CCc2ccc(OCCCCN3CCN(c4cccc(Cl)c4Cl)CC3)cc2N1 [ARP, aripiprazole] |  |
